Results on 1 compound are retold here after EPA's ToxValDB 9.5 (doi:10.2903/j.efsa.2018.5130).

SMILES strings stand for the structures. In brackets after ≈: the same amount, converted by molar mass.

The test system of one series is Aphidius rhopalosiphi. Briefly: LR50; higher = less toxic. Conditions: acute; mortality.
The test system of the next series is Pleurozium sp. As to conditions: acute; duration: 72 hours; growth.
The next series concerns Apis mellifera. Conditions: acute, mortality.
In another series the test system is Tagia sp. Conditions: chronic/long-term; growth.
Another series deals with Folsomia candida. Conditions: chronic/long-term; duration: 28 days; reproduction.
The next series has as its system Daphnia magna. As to conditions: chronic/long-term; duration: 21 days; reproduction.
The subject of the next series is Bibionidae. Conditions: chronic/long-term; duration: 28 days; development.
The next series deals with Phasianus sp. Conditions: acute; duration: 14 days; oral; unspecified; mortality.
The test system of another series is Neomysis kadiakensis. As to conditions: acute; duration: 96 hours; mortality.
A further series concerns Mus musculus. As to conditions: acute, oral, mortality.
A further series deals with Rattus norvegicus. As to conditions: developmental; development.

As for `COP(=S)(OC)Oc1c(Cl)cc(C)cc1Cl` [Tolclofos-methyl], the LR50 in the series on Aphidius rhopalosiphi was determined as 43.7 g/ha. Also, the NOEC amounted to 0.14 mg/L with Pleurozium sp.; 60 mg/kg with Tagia sp.; 11 mg/kg in the series on Folsomia candida; 0.026 mg/L in the series with Daphnia magna; 0.012 mg/L in the series on Oncorhynchus mykiss (chronic/long-term, growth); 0.25 mg/L in the series on Bibionidae. Further, the LD50 was greater than 264 µg/piece in the series on Apis mellifera (duration: 48 hours, oral, unspecified); 456 µg/piece in the series with Apis mellifera (duration: 72 hours, dermal); greater than 1620 mg/kg-day in the series with Anas platyrhynchos (short-term, duration: 8 days, oral, feed, mortality); greater than 5000 mg/kg-day in the series with Phasianus sp.; 3600 mg/kg-day in the series with Mus musculus (F); 3500 mg/kg-day with Mus musculus (M). Moreover, the LC50 (in general, the concentration that kills 50% of the test population) came out at 0.69 µg/mL (≈ 2.29 µM) in the series with Oncorhynchus mykiss (acute, duration: 96 hours, mortality) and 0.089 µg/mL (≈ 0.296 µM) in the series on Neomysis kadiakensis. Besides, the NOAEL – broadly, the highest tested level that showed no adverse finding – came to 77 mg/kg-day in the series on Anas platyrhynchos (reproductive, duration: 19 weeks) and 70.6 mg/kg-day in the series with Rattus norvegicus.
